{
  "source": "patent US20250134875A1",
  "about": "“FORMULATIONS OF ALK-5 KINASE INHIBITORS AND USES THEREOF” (Thirona Bio, Inc., priority 2023, published 2025)",
  "key": {"[1]": {"system": "profibrotic genes", "assay": "Gene expression (RNA sequencing) in surgical incision-induced dermal fibrosis model", "type": "in vivo, Göttingen minipig", "procedure": "Minipig skin is more similar to human skin than rodent skin, and dermal delivery of topical ALK-5 kinase inhibitor Compound 1 in minipigs is expected to be reflective of treatment of human skin. Therefore, a model of surgical incision-induced dermal fibrosis was established in minipigs and the effects of topical Compound 1 were evaluated by visual assessment, histologic examination and gene expression by RNA sequencing.\n(§1) The study was conducted in 4 female Göttingen SPF minipigs. On Day 1, eight full thickness incisional wounds, four on each side, were performed on each animal. Compound 1 0% (Vehicle), 0.1%, 0.3% or 1% was applied topically twice daily for 14 days from Day 7 through Day 20 on each incision. All animals received a dose volume of 160 μl per wound ([…] applied to a 32 cm2 area surrounding each incision). Clinical signs, visual observations of incisions, body weight and food consumption were recorded during the in-life period. At necropsy (Day 21) two biopsies were collected from each incision for histopathology and gene expression analysis.\nFor gene expression analysis, a 0.3 cm punch biopsy was collected from the incisional wounds. Samples were collected and stored overnight in prefilled tubes containing RNAlater at 5±3° C., and then transferred to a freezer and stored at ˜−20° C. The biopsies collected were then thawed and subjected to RNA purification and then generation of mRNA-enriched cDNA libraries for Illumina sequencing. RNA sequencing was performed to a depth of ˜15 million reads followed by bioinformatic analysis, including differential gene expression analysis."}, "[2]": {"assay": "Excipient compatibility / stability study (HPLC, 2 weeks)", "type": "physicochemical", "conditions": "for Loss of Compound 1 on storage / Stability conclusion: 2 weeks; for Stability conclusion: RT, 40 and 50° C.", "procedure": "Stability studies were conducted to evaluate compatibility and stability of Compound 1 with some of the excipients included in the solubility experiments. The stability was assessed using the validated API HPLC method after storage at room temperature (RT), 40° C. and 50° C. for 2 weeks. The summary of the data generated from these experiments is provided below in Table 6 below."}, "[3]": {"system": "surgical incision-induced dermal fibrosis", "assay": "Surgical incision-induced dermal fibrosis model: clinical signs, visual assessment, histology", "type": "in vivo, Göttingen minipig", "procedure": ". Therefore, a model of surgical incision-induced dermal fibrosis was established in minipigs and the effects of topical Compound 1 were evaluated by visual assessment, histologic examination and gene expression by RNA sequencing.\nas §1, with “[…].” for “Compound 1 0% (Vehicle), 0.1%, 0.3% or 1% was applied topically twice daily for 14 days from Day 7 through Day 20 on each incision.”\nFor histopathology, a 0.8 cm punch biopsy was collected from the incisional wounds. The biopsies were divided into two, diagonal to the incisional wound. All biopsies were individually fixed in phosphate buffered neutral 4% formaldehyde. Following fixation, all incisional wound biopsies collected for microscopic examination were trimmed and processed. The specimens were embedded in paraffin and cut at a nominal thickness of approximately […], stained with haematoxylin and eosin, and examined by light microscopy."}, "[4]": {"assay": "Stability studies (storage and forced degradation)", "type": "physicochemical", "procedure": "The physical solubility of the formulation is an important factor in the development of the formulation.\nThe active ingredient, Compound 1, is very stable, and has known stability of greater than 5 years.\nThe stability studies were also conducted by storing the samples under the conditions of accelerated degradation (40° C./75% RH). The stress conditions and the resulting stability of the formulation is provided below."}, "[5]": {"conditions": "topical 0.1%, 0.3% or 1% twice daily Day 7-20, biopsy Day 21"}},
  "data": [
    {"compound": "Cc1cccc(-n2ncc(C)c2-c2cc3cnccc3s2)n1", "note": "[Compound 1]", "values": [
      {"measurement": "Gene expression of the profibrotic genes investigated", "setting": "[1]; FIG. 7", "result": "consistent tendency to dose-dependently reduce gene expression"},
      {"measurement": "Change in gene expression, ADAM12", "setting": "[1]; [5]", "result": "−52", "unit": "%"},
      {"measurement": "Change in gene expression, ADAMTS14", "setting": "[1]; [5]", "result": "−52", "unit": "%"},
      {"measurement": "Change in gene expression, BMP1", "setting": "[1]; [5]", "result": "−47", "unit": "%"},
      {"measurement": "Change in gene expression, COL1A1", "setting": "[1]; [5]", "result": "−49", "unit": "%"},
      {"measurement": "Change in gene expression, COL1A2", "setting": "[1]; [5]", "result": "−48", "unit": "%"},
      {"measurement": "Change in gene expression, COL3A1", "setting": "[1]; [5]", "result": "−49", "unit": "%"},
      {"measurement": "Change in gene expression, MMP2", "setting": "[1]; [5]", "result": "−52", "unit": "%"},
      {"measurement": "Change in gene expression, MMP9", "setting": "[1]; [5]", "result": "−54", "unit": "%"},
      {"measurement": "Change in gene expression, MMP14", "setting": "[1]; [5]", "result": "−42", "unit": "%"},
      {"measurement": "Change in gene expression, TGF-β1", "setting": "[1]; [5]", "result": "up to −23%"},
      {"measurement": "Change in gene expression, TGF-β2", "setting": "[1]; [5]", "result": "≤ −32", "unit": "%"},
      {"measurement": "Change in gene expression, TGF-β3", "setting": "[1]; [5]", "result": "≤ −49", "unit": "%"},
      {"measurement": "Change in gene expression, THBS4", "setting": "[1]; [5]", "result": "−67", "unit": "%"},
      {"measurement": "Change in gene expression, TIMP1", "setting": "[1]; [5]", "result": "−17", "unit": "%"},
      {"measurement": "Change in gene expression, TIMP2", "setting": "[1]; [5]", "result": "−46", "unit": "%"},
      {"measurement": "Loss of Compound 1 on storage", "setting": "[2]; Benzyl Alcohol +0.1% BHT, 40° C.", "result": "No Loss"},
      {"measurement": "Loss of Compound 1 on storage", "setting": "[2]; Benzyl Alcohol +0.1% BHT, 50° C.", "result": "No Loss"},
      {"measurement": "Loss of Compound 1 on storage", "setting": "[2]; Benzyl Alcohol +0.1% BHT, RT storage", "result": "No Loss"},
      {"measurement": "Stability conclusion", "setting": "[2]; Benzyl Alcohol +0.1% BHT", "result": "STABLE AT ALL"},
      {"measurement": "Loss of Compound 1 on storage", "setting": "[2]; Benzyl Alcohol, 40° C.", "result": "No Loss"},
      {"measurement": "Loss of Compound 1 on storage", "setting": "[2]; Benzyl Alcohol, 50° C.", "result": "No Loss"},
      {"measurement": "Loss of Compound 1 on storage", "setting": "[2]; Benzyl Alcohol, RT storage", "result": "No Loss"},
      {"measurement": "Stability conclusion", "setting": "[2]; Benzyl Alcohol", "result": "STABLE AT ALL"},
      {"measurement": "Loss of Compound 1 on storage", "setting": "[2]; Diethyl Sebacate, 40° C.", "result": "3-4% loss"},
      {"measurement": "Loss of Compound 1 on storage", "setting": "[2]; Diethyl Sebacate, 50° C.", "result": 6, "unit": "% loss"},
      {"measurement": "Loss of Compound 1 on storage", "setting": "[2]; Diethyl Sebacate, RT storage", "result": "No Loss"},
      {"measurement": "Stability conclusion", "setting": "[2]; Diethyl Sebacate", "result": "Some Instability"},
      {"measurement": "Loss of Compound 1 on storage", "setting": "[2]; PEG 400 + 0.1% BHT, 40° C.", "result": "No Loss"},
      {"measurement": "Loss of Compound 1 on storage", "setting": "[2]; PEG 400 + 0.1% BHT, 50° C.", "result": "No Loss"},
      {"measurement": "Loss of Compound 1 on storage", "setting": "[2]; PEG 400 + 0.1% BHT, RT storage", "result": "No Loss"},
      {"measurement": "Loss of Compound 1 on storage", "setting": "[2]; PEG 400, 40° C.", "result": 10, "unit": "% loss"},
      {"measurement": "Loss of Compound 1 on storage", "setting": "[2]; PEG 400, 50° C.", "result": "~28", "unit": "% loss"},
      {"measurement": "Loss of Compound 1 on storage", "setting": "[2]; PEG 400, RT storage", "result": "No Loss"},
      {"measurement": "Stability conclusion", "setting": "[2]; PEG 400", "result": "Unstable at > RT"},
      {"measurement": "Loss of Compound 1 on storage", "setting": "[2]; Phenoxyethanol +0.1% BHT, 40° C.", "result": "No Loss"},
      {"measurement": "Loss of Compound 1 on storage", "setting": "[2]; Phenoxyethanol +0.1% BHT, 50° C.", "result": "No Loss"},
      {"measurement": "Loss of Compound 1 on storage", "setting": "[2]; Phenoxyethanol +0.1% BHT, RT storage", "result": "No Loss"},
      {"measurement": "Stability conclusion", "setting": "[2]; Phenoxyethanol +0.1% BHT", "result": "STABLE AT ALL"},
      {"measurement": "Loss of Compound 1 on storage", "setting": "[2]; Phenoxyethanol, 40° C.", "result": "No Loss"},
      {"measurement": "Loss of Compound 1 on storage", "setting": "[2]; Phenoxyethanol, 50° C.", "result": "No Loss"},
      {"measurement": "Loss of Compound 1 on storage", "setting": "[2]; Phenoxyethanol, RT storage", "result": "No Loss"},
      {"measurement": "Stability conclusion", "setting": "[2]; Phenoxyethanol", "result": "STABLE AT ALL"},
      {"measurement": "Loss of Compound 1 on storage", "setting": "[2]; Propylene Glycol, 40° C.", "result": "No Loss"},
      {"measurement": "Loss of Compound 1 on storage", "setting": "[2]; Propylene Glycol, 50° C.", "result": "No Loss"},
      {"measurement": "Loss of Compound 1 on storage", "setting": "[2]; Propylene Glycol, RT storage", "result": "No Loss"},
      {"measurement": "Stability conclusion", "setting": "[2]; Propylene Glycol", "result": "STABLE AT ALL"},
      {"measurement": "Loss of Compound 1 on storage", "setting": "[2]; Transcutol (DEGEE) +0.1% BHT, 40° C.", "result": "No Loss"},
      {"measurement": "Loss of Compound 1 on storage", "setting": "[2]; Transcutol (DEGEE) +0.1% BHT, 50° C.", "result": "No Loss"},
      {"measurement": "Loss of Compound 1 on storage", "setting": "[2]; Transcutol (DEGEE) +0.1% BHT, RT storage", "result": "No Loss"},
      {"measurement": "Stability conclusion", "setting": "[2]; Transcutol (DEGEE) +0.1% BHT", "result": "STABLE AT ALL"},
      {"measurement": "Loss of Compound 1 on storage", "setting": "[2]; Transcutol (DEGEE), 40° C.", "result": "No Loss"},
      {"measurement": "Loss of Compound 1 on storage", "setting": "[2]; Transcutol (DEGEE), 50° C.", "result": "No Loss"},
      {"measurement": "Loss of Compound 1 on storage", "setting": "[2]; Transcutol (DEGEE), RT storage", "result": "No Loss"},
      {"measurement": "Stability conclusion", "setting": "[2]; Transcutol (DEGEE)", "result": "STABLE AT ALL"},
      {"measurement": "Loss of Compound 1 on storage", "setting": "[2]; pH 3 Citrate buffer, 40° C.", "result": "No Loss"},
      {"measurement": "Loss of Compound 1 on storage", "setting": "[2]; pH 3 Citrate buffer, 50° C.", "result": "No Loss"},
      {"measurement": "Loss of Compound 1 on storage", "setting": "[2]; pH 3 Citrate buffer, RT storage", "result": "No Loss"},
      {"measurement": "Stability conclusion", "setting": "[2]; pH 3 Citrate buffer", "result": "STABLE AT ALL"},
      {"measurement": "Loss of Compound 1 on storage", "setting": "[2]; pH4 Citrate buffer, 40° C.", "result": "No Loss"},
      {"measurement": "Loss of Compound 1 on storage", "setting": "[2]; pH4 Citrate buffer, 50° C.", "result": "No Loss"},
      {"measurement": "Loss of Compound 1 on storage", "setting": "[2]; pH4 Citrate buffer, RT storage", "result": "No Loss"},
      {"measurement": "Stability conclusion", "setting": "[2]; pH4 Citrate buffer", "result": "STABLE AT ALL"},
      {"measurement": "Loss of Compound 1 on storage", "setting": "[2]; pH5 Citrate buffer, 40° C.", "result": "No Loss"},
      {"measurement": "Loss of Compound 1 on storage", "setting": "[2]; pH5 Citrate buffer, 50° C.", "result": "No Loss"},
      {"measurement": "Loss of Compound 1 on storage", "setting": "[2]; pH5 Citrate buffer, RT storage", "result": "No Loss"},
      {"measurement": "Stability conclusion", "setting": "[2]; pH5 Citrate buffer", "result": "STABLE AT ALL"},
      {"measurement": "Stability of Compound 1 with excipients (summary)", "setting": "[2]; solubility and compatibility experiments", "result": "relatively stable except with PEG400 and Diethyl Sebacate"},
      {"measurement": "Wound healing (histology: new collagen, re-epithelialisation)", "setting": "[3]; Day 21", "result": "wound healing was not compromised"},
      {"measurement": "Adverse clinical signs", "setting": "[3]; in-life period, topical 0.1%, 0.3% or 1% twice daily for 14 days", "result": "No adverse clinical signs"},
      {"measurement": "Fibrosis (gene expression and histology data)", "setting": "[3]; topical administration", "result": "inhibits fibrosis"},
      {"measurement": "Known stability of the active ingredient", "setting": "[4]", "result": "greater than 5 years"}
    ]}
  ]
}
